Measurements as given in patent publication US9393271B2, “GHRH agonists for islet cell transplantation and function and the treatment of diabetes” (UNIVERSITY OF MIAMI, priority 2012, dated 2016).
Like-named read-outs stand apart in the source and are kept apart here. Each block holds one molecule with its values, some of them ahead of it. Non-standard residues stand in square brackets, D forms with d. Residues, ends and D or L forms follow the SMILES beside them. *: point of attachment. Phe(F5) = N[C@@H](Cc1c(F)c(F)c(F)c(F)c1F)C(=O)O; Desaminotyrosyl = O=C(CCc1ccc(O)cc1)*; NMeY = CN[C@@H](Cc1ccc(O)cc1)C(=O)O; Agmatine = N=C(N)NCCCCN*; Nle = CCCC[C@H](N)C(=O)O; Orn = NCCC[C@H](N)C(=O)O; Abu = CC[C@H](N)C(=O)O; GABA = NCCCC(=O)O

Key:
[1] = system: INS-1 cells; experiment: INS-1 proliferation (BrdU Cell Proliferation Assay); assay type: cell-based, rat; details: different concentrations, 24 h, 48 h and 72 h
Method: For determination of proliferation activity, BrdU incorporation was performed in INS-1 cells following exposure to P-27403. Proliferation was measured using BrdU Cell Proliferation Assay (Millipore) following the manufacturer's description. The maximal enhancement in proliferation rate of 16% compared to control was found at 10^−8 M concentration of P-27403 (FIG. 1C).
INS-1 cells were grown for 72 h before experimentation. Cells were treated with GHRH agonists MR356, MR367, and MR403 at different concentrations or with 0.1% (vol/vol) DMSO as control for 24 h, 48 h and 72 h. Proliferation was measured using BrdU Cell Proliferation Assay (Millipore) following the manufacturer's description.

[2] = target: T1, GHRH receptor (human pituitary membrane homogenates) (Homo sapiens, UniProt Q02643); experiment: GHRH receptor binding, ligand competition with 125I-labeled JV-1-42 (Table 7); design: Normal human pituitaries were purchased from the National Hormone and Peptide Program; tissue National Hormone and Peptide Program (A. F. Parlow, Harbor-UCLA Medical Center, Torrance, Calif.); host or cells: normal human pituitary, membrane fraction / homogenate; details: JI-38 = 1
T1 sequence (Q02643 23-423): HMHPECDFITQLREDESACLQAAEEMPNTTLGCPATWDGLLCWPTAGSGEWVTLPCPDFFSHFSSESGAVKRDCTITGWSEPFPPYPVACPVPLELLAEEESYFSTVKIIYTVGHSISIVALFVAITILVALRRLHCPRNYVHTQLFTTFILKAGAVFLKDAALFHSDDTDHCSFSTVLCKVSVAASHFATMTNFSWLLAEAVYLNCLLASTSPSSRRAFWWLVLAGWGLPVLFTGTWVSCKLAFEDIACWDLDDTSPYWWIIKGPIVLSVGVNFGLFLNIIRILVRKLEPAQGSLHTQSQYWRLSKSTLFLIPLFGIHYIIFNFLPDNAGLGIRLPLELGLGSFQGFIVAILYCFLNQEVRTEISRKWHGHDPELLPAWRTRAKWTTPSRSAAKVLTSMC

[3] = system: GH level; experiment: In vivo endocrine activity (GH release), intravenous administration; details: rat
Method: In vivo tests on endocrine activity of new GHRH agonists (Intravenous administration). For in vivo tests based on intravenous administration, adult male Sprague-Dawley rats were anesthetized with pentobarbital (6 mg/100/g, b.w.), and GHRH agonists were injected 20 minutes after the injection of pentobarbital. Blood samples were taken from the jugular vein (pretreated level), immediately after hGHRH(1-29)NH2 injection (as a control) or after hGHRH analogs injection. Blood samples were taken from the jugular vein 5, 15 and 30 minutes after the injection. The blood samples were centrifuged, plasma was removed and the GH level was measured by ELISA.

[4] = system: GH level; experiment: In vivo endocrine activity (GH release), subcutaneous administration; details: rat, s.c.
Method: Subcutaneous Administration. Adult male rats were used and anesthetized with pentobarbital (6 mg/100 g, b.w.), by i.p. injection. […] Blood samples were taken from the jugular vein 5, 15 and/or 30 minutes after the injection. The blood samples were centrifuged, plasma was removed and the GH level was measured by ELISA. The results are summarized in terms of potency in Table 9.

[5] = target: T1, GHRH receptor (human pituitary membrane homogenates); experiment: GHRH receptor binding, ligand competition with 125I-labeled JV-1-42 (Table 5); details: for Relative affinitiy (Binding potency) vs GHRH: GHRH(1-29) = 1; for Relative affinitiy (Binding potency) vs JI-38: JI-38 = 1
[6] = system: rat pituitary cells; experiment: GH release in superfused rat pituitary cell system; assay type: cell-based; details: 1 nM, 3-min pulse; for GH Response (ng/ml) Average: average of runs; for GH Response (ng/ml) 1: run 1; for GH Response (ng/ml) 2: run 2
Method: Growth hormone releasing activity. Growth hormone releasing was assayed by using a superfused rat pituitary cell system as described in S. Vigh and A. V. Schally, Peptides 5, Suppl: 241-347, 1984. The new synthetic peptide analog of hGHRH P20356 and JI-38 (as control) were administered for 3 minutes (1 mL perfusate) at 1 nM concentration as shown below. Fractions of 1 ml are collected and the GH content in each was determined by ELISA.
Pituitary cells from 2 male rats were used for each channel of the superfusion system. The cells were exposed to 3-min pulses of the new GHRH agonists or to JI-38 as standard every 30 min. Outflowing samples of each channel (1 ml) were collected every 3 min, and GH levels were determined by ELISA.

[7] = target: T1, GHRH receptor (human pituitary membrane homogenates); experiment: GHRH receptor binding, ligand competition with 125I-labeled [His1,Nle27]hGHRH(1-32)NH2 (Table 6)
[8] = target: T2, GHRH receptor in human pituitary membrane homogenates (human, UniProt Q02643); experiment: ligand competition, 125I-JV-1-42 displaced, human pituitary membranes
T2 sequence: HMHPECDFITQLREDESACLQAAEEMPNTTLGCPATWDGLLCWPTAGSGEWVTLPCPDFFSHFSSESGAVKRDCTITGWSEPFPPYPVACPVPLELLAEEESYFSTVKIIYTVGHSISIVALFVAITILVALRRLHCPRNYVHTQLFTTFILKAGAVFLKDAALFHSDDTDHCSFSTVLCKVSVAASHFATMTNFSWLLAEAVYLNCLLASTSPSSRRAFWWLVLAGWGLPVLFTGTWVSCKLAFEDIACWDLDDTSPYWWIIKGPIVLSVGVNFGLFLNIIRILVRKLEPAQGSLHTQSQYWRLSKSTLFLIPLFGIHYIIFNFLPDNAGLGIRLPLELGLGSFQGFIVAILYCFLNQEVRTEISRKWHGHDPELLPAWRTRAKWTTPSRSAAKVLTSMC

[9] = target: T2, GHRH receptor in human pituitary …; experiment: as above; remark: listed apart in the source
[10] = fraction 1 (P-20356) / 21 (JI-38)
[11] = fraction 2 (P-20356) / 22 (JI-38)
[12] = fraction 3 (P-20356) / 23 (JI-38)
[13] = fraction 4 (P-20356) / 24 (JI-38)
[14] = fraction 5 (P-20356) / 25 (JI-38)

Molecule: CCCC[C@H](NC(=O)[C@@H](NC(=O)[C@H](CC(=O)O)NC(=O)[C@H](CCC(N)=O)NC(=O)[C@H](CC(C)C)NC(=O)[C@H](CC(C)C)NC(=O)[C@H](CCCN)NC(=O)[C@H](CCCNC(=N)N)NC(=O)[C@H](C)NC(=O)[C@H](CO)NC(=O)[C@H](CC(C)C)NC(=O)[C@H](CCC(N)=O)NC(=O)[C@H](CC)NC(=O)[C@H](CC(C)C)NC(=O)[C@@H](NC(=O)[C@H](CCCN)NC(=O)[C@H](CCCNC(=N)N)NC(=O)[C@H](Cc1ccc(O)cc1)NC(=O)[C@H](CO)NC(=O)[C@H](CC(N)=O)NC(=O)[C@@H](NC(=O)[C@H](Cc1ccccc1)NC(=O)[C@@H](NC(=O)[C@H](C)NC(=O)[C@H](CC(=O)O)NC(=O)[C@@H](C)NC(=O)[C@H](Cc1ccc(O)cc1)NC)[C@@H](C)CC)[C@@H](C)O)C(C)C)[C@@H](C)CC)C(=O)N[C@@H](CC(=O)O)C(=O)NCCCCNC(=N)N [Peptide P-20367, [N—Me-Tyr^1, D-Ala^2, Orn^12, Abu^15, Orn^21, Nle^27, Asp^28, Agm^29]hGHRH(1-29)] (H-[NMeY][dA]DAIFTNSYR[Orn]VL[Abu]QLSAR[Orn]LLQDI[Nle]D-Agmatine)
Cell proliferation compared to control [1]: significantly induced cell proliferation | Relative affinitiy (Binding potency) vs JI-38 [2]: 2.56

Molecule: CCCC[C@H](NC(=O)[C@@H](NC(=O)[C@H](CC(=O)O)NC(=O)[C@H](CCC(N)=O)NC(=O)[C@H](CC(C)C)NC(=O)[C@H](CC(C)C)NC(=O)[C@H](CCCN)NC(=O)[C@H](CCCNC(=N)N)NC(=O)[C@H](C)NC(=O)[C@H](CO)NC(=O)[C@H](CC(C)C)NC(=O)[C@H](CCC(N)=O)NC(=O)[C@H](CC)NC(=O)[C@H](CC(C)C)NC(=O)[C@@H](NC(=O)[C@H](CCCN)NC(=O)[C@H](CCCNC(=N)N)NC(=O)[C@H](Cc1ccc(O)cc1)NC(=O)[C@H](CO)NC(=O)[C@H](CCC(N)=O)NC(=O)[C@@H](NC(=O)[C@H](Cc1ccccc1)NC(=O)[C@@H](NC(=O)[C@H](C)NC(=O)[C@H](CC(=O)O)NC(=O)[C@H](C)NC(=O)CCc1ccc(O)cc1)[C@@H](C)CC)[C@@H](C)O)C(C)C)[C@@H](C)CC)C(=O)N[C@@H](CC(=O)O)C(=O)NCCCCNC(=N)N [JI-38, reference compound] (Desaminotyrosyl-ADAIFTQSYR[Orn]VL[Abu]QLSAR[Orn]LLQDI[Nle]D-Agmatine)
GH Response (ng/ml) Average [6, 10]: 49.27 ng/mL | GH Response (ng/ml) Average [6, 11]: 131.71 ng/mL | GH Response (ng/ml) Average [6, 12]: 194.68 ng/mL | GH Response (ng/ml) Average [6, 13]: 137.45 ng/mL | GH Response (ng/ml) Average [6, 14]: 96.70 ng/mL | GH Response (ng/ml) 1 [6, 10]: 42.46 ng/mL | GH Response (ng/ml) 1 [6, 11]: 143.58 ng/mL | GH Response (ng/ml) 1 [6, 12]: 222.13 ng/mL | GH Response (ng/ml) 1 [6, 13]: 142.96 ng/mL | GH Response (ng/ml) 1 [6, 14]: 96.34 ng/mL | GH Response (ng/ml) 2 [6, 10]: 56.07 ng/mL | GH Response (ng/ml) 2 [6, 11]: 119.83 ng/mL | GH Response (ng/ml) 2 [6, 12]: 167.23 ng/mL | GH Response (ng/ml) 2 [6, 13]: 131.93 ng/mL | GH Response (ng/ml) 2 [6, 14]: 97.05 ng/mL | Relative affinitiy (Binding potency) vs GHRH [5]: 2.4 | Relative affinitiy (Binding potency) vs JI-38 [5]: 1 | Relative affinitiy (Binding potency) vs GHRH ([7]; GHRH(1-29) = 1): 3.03 | Relative affinitiy (Binding potency) vs JI-38 ([7]; JI-38 = 1): 1 | Relative affinitiy (Binding potency) vs JI-38 [2]: 1

Continued, in another order:

Relative affinitiy (Binding potency) vs GHRH [5]: 58.0 | Relative affinitiy (Binding potency) vs JI-38 [5]: 24.4 | Relative affinitiy (Binding potency) vs JI-38 [2]: 13.18
Molecule: CCCC[C@H](NC(=O)[C@@H](NC(=O)[C@H](CC(=O)O)NC(=O)[C@H](CCC(N)=O)NC(=O)[C@H](CC(C)C)NC(=O)[C@H](CC(C)C)NC(=O)[C@H](CCCN)NC(=O)[C@H](CCCNC(=N)N)NC(=O)[C@H](C)NC(=O)[C@H](CO)NC(=O)[C@H](CC(C)C)NC(=O)[C@H](CCC(N)=O)NC(=O)[C@H](CC)NC(=O)[C@H](CC(C)C)NC(=O)[C@@H](NC(=O)[C@H](CCCN)NC(=O)[C@H](CCCNC(=N)N)NC(=O)[C@H](Cc1ccc(O)cc1)NC(=O)[C@H](CO)NC(=O)[C@H](CC(N)=O)NC(=O)[C@@H](NC(=O)[C@H](Cc1c(F)c(F)c(F)c(F)c1F)NC(=O)[C@@H](NC(=O)[C@H](C)NC(=O)[C@H](CC(=O)O)NC(=O)[C@@H](C)NC(=O)CCc1ccc(O)cc1)[C@@H](C)CC)[C@@H](C)O)C(C)C)[C@@H](C)CC)C(=O)N[C@@H](CO)C(=O)N[C@@H](CCCNC(=N)N)C(=O)NCCCC(N)=O [Peptide P-25502, [Dat^1, D-Ala^2, Fpa5^6, Orn^12, Abu^15, Orn^21, Nle^27, Gab^30]hGHRH(1-30)NH2] (Desaminotyrosyl-[dA]DAI[Phe(F5)]TNSYR[Orn]VL[Abu]QLSAR[Orn]LLQDI[Nle]SR[GABA]-NH2)
Stimulation of growth hormone levels after i.v. administration (comparison in words) [3]: most potent | Stimulation of growth hormone levels after s.c. administration (comparison in words) [4]: stimulated greater growth hormone levels than hGHRH or JI-38

IC50 [8]: 0.04 nM | relative affinity (binding potency) vs GHRH [8]: 102 GHRH(1-29) = 1 | relative affinity (binding potency) vs JI-38 [8]: 42.7 JI-38 = 1 | IC50 [9]: 0.52 nM | relative affinity (binding potency) vs JI-38 [9]: 8.37 JI-38 = 1
B1: [Dat1, D-Ala2, Gln8, Orn12, Abu15, Orn21, Nle27, Asp28, Agm29]hGHRH(1-29) (peptide)
peptide: [Desaminotyrosyl][dA]DAIFTQSYR[Orn]VL[Abu]QLSAR[Orn]LLQDI[Nle]D[Agmatine]
SMILES: CCCC[C@H](NC(=O)[C@@H](NC(=O)[C@H](CC(=O)O)NC(=O)[C@H](CCC(N)=O)NC(=O)[C@H](CC(C)C)NC(=O)[C@H](CC(C)C)NC(=O)[C@H](CCCN)NC(=O)[C@H](CCCNC(=N)N)NC(=O)[C@H](C)NC(=O)[C@H](CO)NC(=O)[C@H](CC(C)C)NC(=O)[C@H](CCC(N)=O)NC(=O)[C@H](CC)NC(=O)[C@H](CC(C)C)NC(=O)[C@@H](NC(=O)[C@H](CCCN)NC(=O)[C@H](CCCNC(=N)N)NC(=O)[C@H](Cc1ccc(O)cc1)NC(=O)[C@H](CO)NC(=O)[C@H](CCC(N)=O)NC(=O)[C@@H](NC(=O)[C@H](Cc1ccccc1)NC(=O)[C@@H](NC(=O)[C@H](C)NC(=O)[C@H](CC(=O)O)NC(=O)[C@@H](C)NC(=O)CCc1ccc(O)cc1)[C@@H](C)CC)[C@@H](C)O)C(C)C)[C@@H](C)CC)C(=O)N[C@@H](CC(=O)O)C(=O)NCCCCNC(=N)N
